Biological target: human SCN9A (Nav 1.7) (Homo sapiens, UniProt Q15858)
Assay: Measurement of Na ion current (Nav 1.7) by automated patch clamp assay in cells stably-expressing human SCN9A
Assay type: cell-based
Conditions: holding potential inactivating 50% Nav 1.7 channel (around −60 mV), read-out: Inhibitory rate (%) of Na ion current; for inhibition at 10 µM: compound concentration 10 μmol/L; for inhibition at 100 µM: compound concentration 100 μmol/L (footnoted examples)
Description: Measurement of Na Ion Current in Voltage-Dependent Na Channel Gene Expressed Cell Nav 1.7 current was measured by automated patch clamp assay using cells stably-expressing human SCN9A. Cells Stably-expressing Human SCN9A Tetracycline-induced cells stably-expressing SCN9A were obtained from ChanTest Corporation. […] Next day, the Na ion current was measured by automated patch clamp assay. Electrophysiologic Measurement of Na Ion Current The Na ion current was measured by automated patch clamp assay using the following extracellular solution and intracellular solution. […] The control of the stimulating pulse and the data acquisition were carried out using EPC10 amplifier and Patch Master Software (HEKA). Data were sampled at 10 kHz, and low-pass filtered at 3 kHz. All the measurements were carried out at room temperature. […] The inhibitory rate of the Na ion current by the test compounds was calculated according to the following calculating formula with the peak current value generated by the depolarizing pulse. […] The inhibitory rate of Na ion current by each Example Compound was evaluated.

Sequence of human SCN9A (Nav 1.7) (Q15858 whole entry): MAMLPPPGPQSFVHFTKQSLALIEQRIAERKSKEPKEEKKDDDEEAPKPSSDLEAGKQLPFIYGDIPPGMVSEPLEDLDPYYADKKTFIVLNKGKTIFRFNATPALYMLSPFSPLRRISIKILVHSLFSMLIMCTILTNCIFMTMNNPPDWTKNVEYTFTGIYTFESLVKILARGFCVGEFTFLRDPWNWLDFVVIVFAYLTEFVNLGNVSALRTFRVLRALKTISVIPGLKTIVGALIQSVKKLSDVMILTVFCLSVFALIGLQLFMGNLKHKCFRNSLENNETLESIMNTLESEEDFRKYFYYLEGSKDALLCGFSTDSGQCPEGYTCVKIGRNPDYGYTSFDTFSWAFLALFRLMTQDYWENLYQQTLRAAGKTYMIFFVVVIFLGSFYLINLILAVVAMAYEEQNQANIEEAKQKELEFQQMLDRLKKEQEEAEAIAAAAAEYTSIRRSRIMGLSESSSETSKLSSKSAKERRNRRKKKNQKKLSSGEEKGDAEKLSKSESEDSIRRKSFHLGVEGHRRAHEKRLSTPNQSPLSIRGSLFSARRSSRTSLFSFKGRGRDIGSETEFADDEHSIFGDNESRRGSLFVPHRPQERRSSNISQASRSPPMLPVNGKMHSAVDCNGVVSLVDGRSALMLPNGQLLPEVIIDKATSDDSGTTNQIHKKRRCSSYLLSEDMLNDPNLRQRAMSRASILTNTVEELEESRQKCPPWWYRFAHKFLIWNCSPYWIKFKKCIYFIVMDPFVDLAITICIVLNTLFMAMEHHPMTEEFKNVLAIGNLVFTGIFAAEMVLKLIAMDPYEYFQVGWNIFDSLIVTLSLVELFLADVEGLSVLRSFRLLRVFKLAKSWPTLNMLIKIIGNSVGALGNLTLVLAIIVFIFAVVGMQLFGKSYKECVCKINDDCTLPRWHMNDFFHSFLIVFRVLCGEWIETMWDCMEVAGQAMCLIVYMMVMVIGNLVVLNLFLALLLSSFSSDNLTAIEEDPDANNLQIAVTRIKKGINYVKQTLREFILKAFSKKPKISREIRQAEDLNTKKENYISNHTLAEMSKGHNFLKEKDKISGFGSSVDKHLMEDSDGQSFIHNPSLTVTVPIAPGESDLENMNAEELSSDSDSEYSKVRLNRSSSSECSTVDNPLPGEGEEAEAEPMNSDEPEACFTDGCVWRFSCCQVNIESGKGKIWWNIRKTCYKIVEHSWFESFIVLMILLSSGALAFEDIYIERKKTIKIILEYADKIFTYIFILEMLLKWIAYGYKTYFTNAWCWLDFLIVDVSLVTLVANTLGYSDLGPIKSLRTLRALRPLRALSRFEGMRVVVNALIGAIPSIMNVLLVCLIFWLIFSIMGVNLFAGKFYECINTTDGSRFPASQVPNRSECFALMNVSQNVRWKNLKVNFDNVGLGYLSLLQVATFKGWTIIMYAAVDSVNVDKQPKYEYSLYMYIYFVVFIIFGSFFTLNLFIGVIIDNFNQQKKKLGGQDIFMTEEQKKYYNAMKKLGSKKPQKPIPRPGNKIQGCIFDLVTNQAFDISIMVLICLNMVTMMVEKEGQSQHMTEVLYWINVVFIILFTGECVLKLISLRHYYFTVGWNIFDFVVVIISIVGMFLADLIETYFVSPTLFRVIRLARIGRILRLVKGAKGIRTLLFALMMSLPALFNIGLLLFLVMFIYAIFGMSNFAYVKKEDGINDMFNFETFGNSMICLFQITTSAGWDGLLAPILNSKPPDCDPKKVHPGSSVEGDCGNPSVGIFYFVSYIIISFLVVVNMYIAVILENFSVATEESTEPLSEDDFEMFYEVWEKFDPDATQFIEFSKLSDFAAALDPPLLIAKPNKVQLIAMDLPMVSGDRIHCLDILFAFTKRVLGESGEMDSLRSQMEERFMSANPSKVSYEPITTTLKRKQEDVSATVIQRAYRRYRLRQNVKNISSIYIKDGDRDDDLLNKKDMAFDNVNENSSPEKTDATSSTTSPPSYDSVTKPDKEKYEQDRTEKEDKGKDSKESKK

SMILES	inhibition at 10 µM	inhibition at 100 µM
OC1(Cn2cnc3ccc(Oc4ccc(C(F)(F)F)cn4)cc32)CC1 [Example 57]	47%	–
CC(C)(O)Cn1cnc2cc(Oc3cnc(C(F)(F)F)cn3)ccc21 [Example 51, 2-methyl-1-(5-{[5-(trifluoromethyl)pyrazin-2-yl]oxy}-1H-benzimidazol-1-yl)propan-2-ol]	44%	–
OC1(Cn2cnc3ccc(Oc4cccc(F)c4)cc32)COC1 [Example 95]	–	66%
CC(C)OCCn1cnc2ccc(Oc3ccc(F)cc3)cc21 [Example 3, 6-(4-fluorophenoxy)-1-[2-(propan-2-yloxy)ethyl]-1H-benzimidazole]	65%	–
CC(C)(O)Cn1cnc2ccc(Oc3ccc(OC(F)(F)F)cn3)cc21 [Example 120]	13%	–
CC(C)(O)CCn1cnc2ccc(Oc3ccc(C(F)(F)F)cc3)cc21 [Example 102]	59%	–
OC1(Cn2cnc3ccc(Oc4ccc(F)cc4Cl)cc32)COC1 [Example 110, 3-{[6-(2-chloro-4-fluorophenoxy)-1H-benzimidazol-1-yl]methyl}oxetan-3-ol]	58%	–
Fc1ccc(Oc2ccc3ncn(CCOC4CCCC4)c3c2)cc1 [Example 4, 1-[2-(cyclopentyloxy)ethyl]-6-(4-fluorophenoxy)-1H-benzimidazole]	52%	–
C[C@]1(O)C[C@@H](n2cnc3ccc(Oc4ccc(OC(F)(F)F)cn4)cc32)C1 [Example 121]	21%	–
OC1(Cn2cnc3ccc(Oc4cc(Cl)cc(Cl)c4)cc32)COC1 [Example 111]	52%	–
CC(C)(O)Cn1cnc2cc(Oc3ncc(Cl)cc3F)ccc21 [Example 54, 1-{5-[(5-chloro-3-fluoropyridin-2-yl)oxy]-1H-benzimidazol-1-yl}-2-methylpropan-2-ol]	62%	–
OC1(Cn2cnc3ccc(Oc4ccc(C(F)(F)F)cc4)cc32)COC1 [Example 93, 3-({6-[4-(trifluoromethyl)phenoxy]-1H-benzimidazol-1-yl}methyl)oxetan-3-ol]	42%	–
OC1(Cn2cnc3ccc(Oc4ccc(CC(F)(F)F)cc4)cc32)COC1 [Example 105]	38%	–
OC1(Cn2cnc3ccc(Oc4ccc(C(F)(F)F)cn4)cc32)CCOCC1 [Example 55]	37%	–
OC1(Cn2cnc3ccc(Oc4ccc(C(F)(F)F)nc4)cc32)COC1 [Example 96]	–	32%
CC(C)(CO)n1cnc2ccc(Oc3ccc(C(F)(F)F)cn3)cc21 [Example 116]	33%	–
CC(C)(O)Cn1cnc2ccc(Oc3ccc(OC(F)(F)F)cc3)cc21 [Example 22, 2-methyl-1-{6-[4-(trifluoromethoxy)phenoxy]-1H-benzimidazol-1-yl}propan-2-ol]	73%	–
Cc1ccc(Oc2ccc3ncn(CCC(C)(C)O)c3c2)cc1 [Example 99]	12%	–
CC(C)(O)Cn1cnc2ccc(Oc3ccccc3)cc21 [Example 13, 2-methyl-1-(6-phenoxy-1H-benzimidazol-1-yl)propan-2-ol]	25%	–
O[C@H]1CC[C@H](n2cnc3ccc(Oc4ccc(C(F)(F)F)cn4)cc32)CC1 [Example 117]	–	44%
OC1(Cn2cnc3ccc(Oc4ccc(Cl)cc4F)cc32)COC1 [Example 109]	30%	–
CC(C)(O)Cn1cnc2cc(Oc3cccc(C(F)(F)F)n3)ccc21 [Example 43, 2-methyl-1-(5-{[6-(trifluoromethyl)pyridin-2-yl]oxy}-1H-benzimidazol-1-yl)propan-2-ol]	20%	–
Fc1ccc(-c2ccc3ncn(CC4CCCO4)c3c2)cc1 (centres unmarked) [Example 6]	41%	–
CC(C)(O)Cn1cnc2ccc(-c3ccc(C(F)(F)F)cc3)cc21 [Example 9, 2-methyl-1-{6-[4-(trifluoromethyl)phenyl]-1H-benzimidazol-1-yl}propan-2-ol]	77%	–
CC(C)(O)CCn1cnc2ccc(Oc3ccc(F)cc3)cc21 [Example 100]	10%	–
OC1(Cn2cnc3ccc(Oc4ccc(F)cc4)cc32)COC1 [Example 90]	15%	–
Cc1ccc(Oc2ccc3ncn(CC(C)(C)O)c3c2)cn1 [Example 24, 2-methyl-1-{6-[(6-methylpyridin-3-yl)oxy]-1H-benzimidazol-1-yl}propan-2-ol]	56%	–
COc1cc(C(F)(F)F)ccc1-c1ccc2ncn(CC(C)(C)O)c2c1 [Example 124]	61%	–

More lines, now with the values ahead:

inhibition at 10 µM	inhibition at 100 µM	SMILES
45%	–	OC1(Cn2cnc3cc(Oc4ccc(C(F)(F)F)cc4)ccc32)COC1 [Example 226]
42%	–	OC1(Cn2cnc3cc(-c4cc(F)cc(Cl)c4)ccc32)COC1 [Example 214]
48%	–	OC1(Cn2cnc3cc(-c4cc(C(F)(F)F)ccc4F)ccc32)COC1 [Example 210]
52%	–	CC(C)(O)Cn1cnc2cc(-c3cc(F)cc(Cl)c3)ccc21 [Example 200]
28%	–	OC1(Cn2cnc3cc(-c4ccc(OC(F)(F)F)cc4)ccc32)COC1 [Example 204]
11%	–	C[C@](O)(CO)Cn1cnc2ccc(Oc3ccc(C(F)(F)F)cn3)cc21 [Example 227, (2R)-2-methyl-3-(6-{[5-(trifluoromethyl)pyridin-2-yl]oxy}-1H-benzimidazol-1-yl)propane-1,2-diol]
64%	–	CC(C)(O)CCn1cnc2ccc(-c3ccc(C(F)(F)F)cc3)cc21 [Example 172]
33%	–	CC(C)(O)Cn1cnc2cc(-c3ccc(C(F)(F)F)nc3)ccc21 [Example 180]
–	11%	COc1ccc(-c2ccc3c(c2)ncn3CC(C)(C)O)cn1 [Example 182]
64%	–	CC(C)(O)Cn1cnc2cc(Oc3ccc(C(F)(F)F)cc3)ccc21 [Example 225]
66%	–	CC(C)(O)CCn1cnc2ccc(-c3ccc(C(F)(F)F)cc3F)cc21 [Example 174]
71%	–	COc1cccc(-c2ccc3ncn(CC4(O)COC4)c3c2)c1Cl [Example 167]
84%	–	COc1cc(-c2ccc3c(c2)ncn3CC(C)(C)O)cc(C(F)(F)F)c1 [Example 199]
38%	–	OC1(Cn2cnc3ccc(-c4cccc(Cl)c4Cl)cc32)COC1 [Example 152]
49%	–	CC(C)(O)Cn1cnc2cc(-c3cccc(Cl)c3)ccc21 [Example 196]
53%	–	COc1cccc(-c2ccc3c(c2)ncn3CC2(O)COC2)c1Cl [Example 216]
45%	–	COc1cc(C(F)(F)F)ccc1-c1ccc2c(c1)ncn2CCC(C)(C)O [Example 222]
31%	–	CC(C)(O)Cn1cnc2cc(-c3ccccc3Cl)ccc21 [Example 195]
51%	–	CC(C)(O)Cn1cnc2cc(-c3ccc(Cl)cc3F)ccc21 [Example 188]
51%	–	OC1(Cn2cnc3ccc(-c4cc(Cl)ccc4Cl)cc32)COC1 [Example 157]

inhibition at 10 µM	inhibition at 100 µM	SMILES
60%	–	CC(C)(O)CCn1cnc2ccc(-c3ccc(Cl)cc3)cc21 [Example 171]
52%	–	CC(C)(O)CCn1cnc2cc(-c3ccc(Cl)cc3)ccc21 [Example 220]
–	66%	C[C@@H](n1cnc2ccc(Oc3ccc(C(F)(F)F)cn3)cc21)C(C)(C)O [Example 228, (3R)-2-methyl-3-(6-{[5-(trifluoromethyl)pyridin-2-yl]oxy}-1H-benzimidazol-1-yl)butan-2-ol]
34%	–	OC1(Cn2cnc3ccc(-c4ccc(C(F)(F)F)cc4F)cc32)COC1 [Example 149]
35%	–	CC(C)(O)Cn1cnc2ccc(-c3cc(F)cc(Cl)c3)cc21 [Example 143]
–	7%	Cc1ccc(-c2ccc3ncn(CC(C)(C)O)c3c2)cn1 [Example 126]
63%	–	OC1(Cn2cnc3ccc(-c4cc(C(F)(F)F)ccc4Cl)cc32)COC1 [Example 162]
69%	–	OC1(Cn2cnc3cc(-c4ccc(C(F)(F)F)cc4Cl)ccc32)COC1 [Example 206]
67%	–	CC(C)(O)Cn1cnc2cc(-c3ccc(C(F)(F)F)cc3)ccc21 [Example 184]
50%	–	CC(C)(O)Cn1cnc2ccc(-c3ccc(F)c(Cl)c3)cc21 [Example 134]
34%	–	CC(C)(O)Cn1cnc2cc(-c3ccc(Cl)cc3)ccc21 [Example 178]
77%	–	OC1(Cn2cnc3ccc(-c4cccc(C(F)(F)F)c4Cl)cc32)COC1 [Example 168]
58%	–	CC(C)(O)Cn1cnc2cc(-c3cccc(OC(F)(F)F)c3)ccc21 [Example 198]
46%	–	Cc1cc(Cl)cc(-c2ccc3ncn(CC4(O)COC4)c3c2)c1 [Example 169]
62%	–	CC(C)(O)Cn1cnc2ccc(-c3ccc(Cl)cc3C(F)(F)F)cc21 [Example 131]
54%	–	Cc1c(-c2ccc3ncn(CC4(O)COC4)c3c2)cccc1C(F)(F)F [Example 166]
51%	–	Cc1cc(Cl)ccc1-c1ccc2ncn(CC(C)(C)O)c2c1 [Example 129]
80%	–	COc1cc(C(F)(F)F)ccc1-c1ccc2ncn(CCC(C)(C)O)c2c1 [Example 173, 4-{6-[2-methoxy-4-(trifluoromethyl)phenyl]-1H-benzimidazol-1-yl}-2-methylbutan-2-ol]
48%	–	Cc1ccc(Cl)cc1-c1ccc2c(c1)ncn2CC1(O)COC1 [Example 209]
15%	–	CC(C)(O)Cn1cnc2ccc(-c3ccc4ocnc4c3)cc21 [Example 147]

From patent US10407395B2, “Benzimidazole compound and medical use thereof” (Sumitomo Dainippon Pharma Co., Ltd., priority 2015, dated 2019)
